Drawing on patent publication US8034812B2, “Imidazopyridazine derivative having kinase inhibitory activity and pharmaceutical agent thereof” (Takeda Pharmaceutical Company Limited, priority 2006, dated 2011), this text covers inhibition for 6 compounds.

The assay concerns the target T1, BRAF (V600E) enzyme (Homo sapiens, UniProt P15056, V600E).
T1 construct: area encoding the BRAF kinase domain region, so that the protein contains an N-terminal Flag; made in house; host or cells: SF-21 insect cells, recombinant baculovirus BAC-V600E
Kind of assay: Determination of BRAF (V600E) kinase inhibitory activity ([γ-32P]ATP, GST-MEK1 (K96R) substrate). The settings on record: read-out: BRAF (V600E) kinase inhibitory rate. The format is biochemical. Here is the method:
Human BRAF gene was cloned by PCR using human Testis cDNA library (Clontech) as a template. The primer used for PCR was prepared from base sequence (Genbank Accession NM_004333) information of BRAF gene by adding a base sequence encoding flag peptide and a recognition sequence of the restriction enzyme to area encoding the BRAF kinase domain region, so that the protein contains an N-terminal Flag. The primer base sequence is shown below.
The PCR reaction was conducted using Pyrobest (Takara Shuzo Co., Ltd). The obtained PCR product was electrophoresed on agarose gel (1%), the DNA fragment amplified by PCR was recovered from the gel, and then digested with restriction enzymes EcoRI and SalI. The DNA treated with the restriction enzymes was electrophoresed on agarose gel (1%), and the obtained DNA fragment was recovered and ligated to plasmid pFASTBAC1 (Invitrogen) digested with restriction enzymes EcoRI and SalI to give expression plasmid pFB-BRAF, and the base sequence of the insert fragment was confirmed. In addition, mutation was introduced into V600E using a Quick change Site Directed Mutagenesis kit (Stratagene). The nucleotide sequences of the primers used are shown in the following.
SF-21 cells were sown at 1×10^6 cells/mL to Sf-900II SFM medium (1 L, Invitrogen) containing 10% fetal bovine serum (Trace), 50 mg/L Gentamicin (Invitrogen) and 0.1% Pluronic F-68 (Invitrogen), and shaking culture was performed using a 2 L volume Erlenmeyer flask at 27° C., 100 rpm. After culturing for 24 hrs, recombinant baculovirus BAC-V600E (13.4 mL) was added to the mixture, and the mixture was further cultured for 3 days. The culture medium was centrifuged at 2,000 rpm for 5 min to give virus-infected cells. The infected cells were washed with a phosphate buffered saline (Invitrogen), centrifuged under the same conditions, and the cells were preserved at −80° C. The cryopreserved cells were thawed in ice, suspended in buffer A (50 mM Tris buffer (30 mL, pH 7.4) containing 20% glycerol, 0.15 M NaCl) supplemented with Complete Protease Inhibitor (Boehringer), and ruptured 3 times with a Polytron homogenizer (Kinematica) at 20,000 rpm for 30 sec. The ruptured medium was clarified by centrifugation at 40,000 rpm for 30 min and filtered with a 0.45 μm filter. The filtrate was passed through a column packed with Anti-FLAG M2 Affinity Gel (4 mL, Sigma) at a flow rate of about 0.5 mL/min. The column was washed with buffer A, and eluted with buffer A containing 100 μg/mL of FLAG peptide. The buffer of this concentrate was exchanged using NAP25 column (Amersham Bioscience) equilibrated with buffer A and the fractions were cryopreserved at −80° C.
A test compound (2.5 μl) dissolved in dimethyl sulfoxide (DMSO) was added to 37.5 μl of a reaction solution (25 mM HEPES (pH 7.5), 10 mM magnesium acetate, 1 mM dithiothreitol) containing BRAF (V600E) enzyme (30 ng) and recombinant type protein GST-MEK1 (K96R) 250 ng, and the mixture was incubated at room temperature for 10 min. ATP solution (10 μl) (2.5 μM ATP, 0.1 μCi [γ-^32P]ATP) was added to the obtained mixture, and the mixture was reacted at room temperature for 20 min. The reaction was quenched by adding 50 μL of ice-cooled 20% trichloroacetic acid (Wako Pure Chemical Industries, Ltd.). The reaction solution was allowed to stand at 4° C. for 30 min, and the acid-precipitable fraction was transferred to GF/C filter plate (Millipore Corporation) using cell harvester (PerkinElmer). The plate was dried at 45° C. for 60 min, and 40 μL of MicroScinti 0 (PerkinElmer) was added thereto. The radioactivity was measured using TopCount (PerkinElmer). The kinase inhibitory rate (%) of the test compound was calculated by the following formula: Inhibitory rate(%)=(1−(count of test compound−blank)÷(control−blank))×100
The count of the solution reacted without addition of the compound was used as a “control”, and the count of the solution without the compound and enzyme was used as a “blank”. […]

T1 sequence (P15056 457-717 V600E limits assumed): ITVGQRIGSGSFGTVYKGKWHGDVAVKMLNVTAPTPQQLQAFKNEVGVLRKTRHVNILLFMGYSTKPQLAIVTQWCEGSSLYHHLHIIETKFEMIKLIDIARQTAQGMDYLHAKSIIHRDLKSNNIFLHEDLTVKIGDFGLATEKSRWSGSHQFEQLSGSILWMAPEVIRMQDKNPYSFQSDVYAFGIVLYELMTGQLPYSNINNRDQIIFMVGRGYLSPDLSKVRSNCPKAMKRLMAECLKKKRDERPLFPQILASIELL

As to `Cc1ccc(Oc2ccc3nc(NC(=O)C4CC4)cn3n2)cc1NC(=O)c1cccc(C(C)(C)C#N)c1` [Example 330, 3-(1-cyano-1-methylethyl)-N-[5-({2-[(cyclopropylcarbonyl)amino]imidazo[1,2-b]pyridazin-6-yl}oxy)-2-methylphenyl]benzamide], the inhibition at 1 µM is at least 90%.
As to `O=C(Nc1cccc(Oc2ccc3nc(NC(=O)C4CC4)cn3n2)c1)c1cccc(C(F)(F)F)c1` [Example 319, N-[3-({2-[(cyclopropylcarbonyl)amino]imidazo[1,2-b]pyridazin-6-yl}oxy)phenyl]-3-(trifluoromethyl)benzamide], the inhibition at 1 µM was at least 90%.
The value for `O=C(Nc1cccc(Sc2ccc3nc(NC(=O)C4CC4)cn3n2)c1)c1cccc(C(F)(F)F)c1` [Example 427, N-[3-({2-[(cyclopropylcarbonyl)amino]imidazo[1,2-b]pyridazin-6-yl}thio)phenyl]-3-(trifluoromethyl)benzamide] was at least 90%; that for `CN(C)CC(=O)Nc1cn2nc(Oc3cccc(NC(=O)c4cccc(C(F)(F)F)c4)c3)ccc2n1` [Example 398, N-[3-({2-[(N,N-dimethylglycyl)amino]imidazo[1,2-b]pyridazin-6-yl}oxy)phenyl]-3-(trifluoromethyl)benzamide] was at least 90%.
The value for `CNc1nccc(Nc2cn3nc(Oc4cccc(NC(=O)c5cccc(C(F)(F)F)c5)c4)ccc3n2)n1` [Example 70, N-{3-[(2-{[2-(methylamino)pyrimidin-4-yl]amino}imidazo[1,2-b]pyridazin-6-yl)oxy]phenyl}-3-(trifluoromethyl)benzamide] was at least 90%; that for `O=C(Nc1cccc(Oc2ccc3nc(NC(=O)C4CC4)cn3n2)c1)Nc1cccc(C(F)(F)F)c1` [Example 431, N-{6-[3-({[3-(trifluoromethyl)phenyl]carbamoyl}amino)phenoxy]imidazo[1,2-b]pyridazin-2-yl}cyclopropanecarboxamide] was at least 90%.
